Measurements reported in patent publication US7326689B2, “Pseudomycins useful against plant diseases” (Eli Lilly and Company, priority 2000, dated 2008).
Where “and” joins values, the source holds several entries; their conditions need not be identical. Equal entries are not always repeated.

Assays:
Experiment in all cases: Antifungal growth assay in potato dextrose broth, 24-well
Format in all cases: cell-based
Drechslera portulacae = conditions: 3x assays
Method: (§1) Fungi to be tested were propagated on potato dextrose agar (PDA) plates at room temperature. Stock solutions of pseudomycins and depsipeptide were suspended in dimethylsulfoxide (DMSO) (Sigma) at 5 mg/ml and stored at −20C. Serial dilutions of compounds were done the day of the experiment. All serial dilutions were made in DMSO. […] These are noted in the raw data section.
(§2) Assays were performed in 24-well cell culture clusters (Costar 3524), with 990 ul potato dextrose broth (PDB, Difco) and 10 ul of the compound to be tested in each well. Initial concentrations tested were 50-1.56 ug/ml (final concentration of pseudomycin). Actual concentrations of pseudomycins tested were 50, 25, 12.5, 6.25, 3.12 and 1.56 ug/ml. Each well was inoculated with the appropriate fungus. Unless noted, the fungal inoculum consisted of an ˜4 mm^2 piece of PDA with fungal mycelium. The exceptions were as follows. Ustilago maydis: this fungus grows much like a yeast on PDA, and cells were scraped from the PDA stock plate, resuspended in PDB and 10 ul inoculum added to each well. Monilinia sp.: this fungal mycelium grows as a very loose sheet on top of PDA and would not adhere to agar blocks. Fungal mycelium was ground with a metal rod in 500 ul PDB and 10 ul inoculum was added to each well. Mycosphaeella fijiensis, Septoria passerinii, Septoria triticii: these fungi all grow very slowly and the results were difficult to score if a small piece of agar with fungal mycelium on it was used as an inoculum. For these fungi, the mycelium was ground with a metal rod in 500 ul PDB and 10 ul inoculum was added to each well.
(§3) Wells were scored for fungal growth at two days and five days. Some slow growing fungi were scored at later days for growth because assessment was not possible at two or five days. Growth was scored by comparison to a control consisting of fungus inoculated into 990 ul potato dextrose broth and 10 ul of DMSO (Dimethylsulfoxide). An additional control consisting of fungal inoculum in PDB only was performed to ensure that the DMSO was not inhibitory to fungal growth.
(§4) For assays that were repeated, new stock solutions were made from a second shipment of pseudomycins. Note that pseudomycin B′ and depsipeptide stock solutions were remade from first shipment materials because these were not included in the second shipment. […] Actual concentrations of pseudomycins tested were 2, 1, 0.5, 0.25, 0.125 and 0.0625 ug/ml. A-PO4 and A-FB=pseudomycin A phosphate salt and free base respectively.
(§5) Table 2: Two day results—concentration indicated is lowest level of compound (ug /ml) that results is no growth. NI, no inhibition; p (partial), at least 50% inhibited; -, not determined. If number of assays was greater than one, number of assays performed on the fungus is noted in parentheses. For several slow-growing fungi, days elapsed before observation (if different than two) are noted.
(§6) Table 3: Five day results—concentration indicated is lowest level of compound (ug /ml) that results in no growth. NI, no inhibition; p (partial), at least 50% inhibited; -, not performed on the fungus is noted in parentheses. For several slow-growing fungi, days elapsed before observation (if different than five) are noted.

Geotrichim candidum = conditions: 3x assays
Method: as §1, §2, §3, §4, §5, §6

Monilinia sp. = conditions: 2x assays
Method: as §1, §2, §3, §4, §5, §6

[1] = tested on: Mycosphaeella fijiensis (8088/88); conditions: 3x assays
Method: as §1, §2, §3, §4, §5, §6

[2] = tested on: Mycosphaeella fijiensis (Sigatoka); conditions: 3x assays
Method: as §1, §2, §3, §4, §5, §6

Penicillium roqueforti = conditions: 3x assays
Method: as §1, §2, §3, §4, §5, §6

Rhizoctonia solani = conditions: 2x assays
Method: as §1, §2, §3, §4, §5, §6

Septoria passerinii = conditions: 3x assays
Method: as §1, §2, §3, §4, §5, §6

Septoria tritici = conditions: 3x assays
Method: as §1, §2, §3, §4, §5, §6

Ustilago maydis = conditions: 3x assays
Method: as §1, §2, §3, §4, §5, §6

Botrytis alli = tested on: Botrytis alli; set-up: key: NI, no inhibition; p (partial), at least 50% inhibited; conditions: 2x assays
Method: as §1, §2, §3, §4, §5, §6

Diplodia natalensis = tested on: Diplodia natalensis; set-up: key: NI, no inhibition; p (partial), at least 50% inhibited
Method: as §1, §2, §3, §4, §5, §6

[3] = tested on: Drechslera tritici-repentis; set-up: key: NI, no inhibition; p (partial), at least 50% inhibited
Method: as §1, §2, §3, §4, §5, §6

Fusarium avenaceum = tested on: Fusarium avenaceum; set-up: key: NI, no inhibition; p (partial), at least 50% inhibited
Method: as §1, §2, §3, §4, §5, §6

Fusarium solani = tested on: Fusarium solani; set-up: key: NI, no inhibition; p (partial), at least 50% inhibited
Method: as §1, §2, §3, §4, §5, §6

[4] = tested on: Pestalotiopsis microspora NE-32; set-up: key: NI, no inhibition; p (partial), at least 50% inhibited
Method: as §1, §2, §3, §4, §5, §6

Phytophthora cactorum = tested on: Phytophthora cactorum; set-up: key: NI, no inhibition; p (partial), at least 50% inhibited
Method: as §1, §2, §3, §4, §5, §6

Phytophthora ultimum = tested on: Phytophthora ultimum; set-up: key: NI, no inhibition; p (partial), at least 50% inhibited
Method: as §1, §2, §3, §4, §5, §6

Sclerotinia sclerotiorum = tested on: Sclerotinia sclerotiorum; set-up: key: NI, no inhibition; p (partial), at least 50% inhibited; conditions: 2x assays
Method: as §1, §2, §3, §4, §5, §6

Stagonospora nodorum = tested on: Stagonospora nodorum; set-up: key: NI, no inhibition; p (partial), at least 50% inhibited
Method: as §1, §2, §3, §4, §5, §6

Tapesia acuformis = tested on: Tapesia acuformis; set-up: key: NI, no inhibition; p (partial), at least 50% inhibited; conditions: 2x assays
Method: as §1, §2, §3, §4, §5, §6

[5] = Table 3 (five day results), observed at 9 day
[6] = Table 2 (two day results), observed at 7 day
[7] = Table 3 (five day results), observed at 21 days

Pseudomycin B
lowest level of compound that results in no growth (Drechslera portulacae; [5]): 0.0625 µg/mL and 0.06 µg/mL
lowest level of compound that results in no growth (Drechslera portulacae; two day results): 0.06 µg/mL
lowest level of compound that results in no growth (Geotrichim candidum; five day results): 3.12 µg/mL
lowest level of compound that results in no growth (Geotrichim candidum; two day results): 1.56 µg/mL
lowest level of compound that results in no growth (Monilinia sp.; five day results): 6.25 µg/mL
lowest level of compound that results in no growth (Monilinia sp.; two day results): 3.13 µg/mL
lowest level of compound that results in no growth [1, 6]: 0.06 µg/mL
lowest level of compound that results in no growth ([1]; Table 3 (five day results), observed at 21 days, listed as B): 0.12 µg/mL
lowest level of compound that results in no growth ([1]; Table 3 (five day results), observed at 21 days, listed as pseudomycin B): 0.125 µg/mL
lowest level of compound that results in no growth [2, 6]: 0.5 µg/mL
lowest level of compound that results in no growth [2, 7]: 1 µg/mL
lowest level of compound that results in no growth (Penicillium roqueforti; five day results): 6.25 µg/mL
lowest level of compound that results in no growth (Penicillium roqueforti; two day results): 0.5 µg/mL
lowest level of compound that results in no growth (Rhizoctonia solani; five day results): 50 µg/mL
lowest level of compound that results in no growth (Rhizoctonia solani; two day results): 6.25 µg/mL
lowest level of compound that results in no growth (Septoria passerinii; five day results, listed as B): 0.0625 µg/mL and 0.06 µg/mL
lowest level of compound that results in no growth (Septoria passerinii; two day results): 0.06 µg/mL
lowest level of compound that results in no growth (Septoria tritici; five day results, listed as B): 0.06 µg/mL
lowest level of compound that results in no growth (Septoria tritici; five day results, listed as pseudomycin B): 0.0625 µg/mL
lowest level of compound that results in no growth (Septoria tritici; two day results): 0.06 µg/mL
lowest level of compound that results in no growth (Ustilago maydis; five day results): 0.5 µg/mL
lowest level of compound that results in no growth (Ustilago maydis; two day results): 0.5 µg/mL
lowest level of compound that results in no growth (Botrytis alli; five day results): NI
lowest level of compound that results in no growth (Botrytis alli; two day results): NI
lowest level of compound that results in no growth (Diplodia natalensis; five day results): NI
lowest level of compound that results in no growth (Diplodia natalensis; two day results): NI
lowest level of compound that results in no growth ([3]; five day results): p at 50
lowest level of compound that results in no growth ([3]; two day results, 2x assays): 50 µg/mL
lowest level of compound that results in no growth (Fusarium avenaceum; five day results): NI
lowest level of compound that results in no growth (Fusarium avenaceum; two day results): NI
lowest level of compound that results in no growth (Fusarium solani; five day results): NI
lowest level of compound that results in no growth (Fusarium solani; two day results): p at 50
lowest level of compound that results in no growth ([4]; five day results): p at 50
lowest level of compound that results in no growth ([4]; two day results): p at 50
lowest level of compound that results in no growth (Phytophthora cactorum; five day results): NI
lowest level of compound that results in no growth (Phytophthora cactorum; two day results): NI
lowest level of compound that results in no growth (Phytophthora ultimum; five day results): NI
lowest level of compound that results in no growth (Phytophthora ultimum; two day results): NI
lowest level of compound that results in no growth (Sclerotinia sclerotiorum; five day results): NI
lowest level of compound that results in no growth (Sclerotinia sclerotiorum; two day results): p at 50
lowest level of compound that results in no growth (Stagonospora nodorum; five day results): NI
lowest level of compound that results in no growth (Stagonospora nodorum; two day results): NI
lowest level of compound that results in no growth (Tapesia acuformis; five day results): NI
lowest level of compound that results in no growth (Tapesia acuformis; two day results): NI

pseudomycin A-FB
lowest level of compound that results in no growth (Drechslera portulacae; [5]): 0.25 µg/mL
lowest level of compound that results in no growth (Drechslera portulacae; two day results): 0.25 µg/mL
lowest level of compound that results in no growth (Geotrichim candidum; five day results): 6.25 µg/mL
lowest level of compound that results in no growth (Geotrichim candidum; two day results): 3.12 µg/mL
lowest level of compound that results in no growth (Monilinia sp.; five day results): 12.5 µg/mL
lowest level of compound that results in no growth (Monilinia sp.; two day results): 6.25 µg/mL
lowest level of compound that results in no growth [1, 6]: 0.25 µg/mL
lowest level of compound that results in no growth [1, 7]: 0.25 µg/mL
lowest level of compound that results in no growth [2, 6]: 0.5 µg/mL
lowest level of compound that results in no growth [2, 7]: 1 µg/mL
lowest level of compound that results in no growth (Penicillium roqueforti; five day results): 3.12 µg/mL
lowest level of compound that results in no growth (Penicillium roqueforti; two day results): 1 µg/mL
lowest level of compound that results in no growth (Rhizoctonia solani; five day results): 50 µg/mL
lowest level of compound that results in no growth (Rhizoctonia solani; two day results): 6.25 µg/mL
lowest level of compound that results in no growth (Septoria passerinii; five day results): 0.06 µg/mL
lowest level of compound that results in no growth (Septoria passerinii; five day results, listed as pseudomycin A (free base)): 0.0625 µg/mL
lowest level of compound that results in no growth (Septoria passerinii; two day results): 0.06 µg/mL
lowest level of compound that results in no growth (Septoria tritici; five day results): 0.25 µg/mL
lowest level of compound that results in no growth (Septoria tritici; two day results): 0.25 µg/mL
lowest level of compound that results in no growth (Ustilago maydis; five day results): 1 µg/mL
lowest level of compound that results in no growth (Ustilago maydis; two day results): 1 µg/mL
lowest level of compound that results in no growth (Botrytis alli; five day results): NI
lowest level of compound that results in no growth (Botrytis alli; two day results): NI
lowest level of compound that results in no growth (Diplodia natalensis; five day results): NI
lowest level of compound that results in no growth (Diplodia natalensis; two day results): NI
lowest level of compound that results in no growth ([3]; five day results): NI
lowest level of compound that results in no growth ([3]; two day results, 2x assays): 25 µg/mL
lowest level of compound that results in no growth (Fusarium avenaceum; five day results): NI
lowest level of compound that results in no growth (Fusarium avenaceum; two day results): NI
lowest level of compound that results in no growth (Fusarium solani; five day results): NI
lowest level of compound that results in no growth (Fusarium solani; two day results): p at 50
lowest level of compound that results in no growth ([4]; five day results): NI
lowest level of compound that results in no growth ([4]; two day results): p at 50
lowest level of compound that results in no growth (Phytophthora cactorum; five day results): NI
lowest level of compound that results in no growth (Phytophthora cactorum; two day results): NI
lowest level of compound that results in no growth (Phytophthora ultimum; five day results): NI
lowest level of compound that results in no growth (Phytophthora ultimum; two day results): NI
lowest level of compound that results in no growth (Sclerotinia sclerotiorum; five day results): NI
lowest level of compound that results in no growth (Sclerotinia sclerotiorum; two day results): NI
lowest level of compound that results in no growth (Stagonospora nodorum; five day results): NI
lowest level of compound that results in no growth (Stagonospora nodorum; two day results): NI
lowest level of compound that results in no growth (Tapesia acuformis; five day results): NI
lowest level of compound that results in no growth (Tapesia acuformis; two day results): NI
